Values belong to the compound of their own block, whether it stands above or below them.
How the values were obtained:
blood pressure = experiment: Change in blood pressure in anesthetized rats (Experiment 1); assay type: in vivo, Male Wister rat; conditions: for Change in Blood Pressure (%): 1 mg/kg into tail vein, anesthetized rat, average of 5 data per group; for Blood Pressure: Table 2, class symbols
Method: Male Wister rat (8-week old) was anesthetized by intraperitoneally administering urethane (1.25 g/kg). Polyethylene tube was inserted into femoral artery and connected with a pressure transducer to measure blood pressure.
The test drugs were dissolved in ethanol, diluted with Ringer's solution before use and a dose of 1 mg/kg was administered into tale vein. The maximum concentration of ethanol was 2%. As reference, ethanol-Ringer's solution without containing test drugs was used and the effect was checked in each experiment without failing. The rate of change in blood pressure (%) was determined by average of 5 data per group.

pulse = test system: pulse; set-up: species or system Male Wister rat; conditions: rat, in vivo
Method: Male Wister rat (8-week old) was anesthetized by intraperitoneally administering urethane (1.25 g/kg). A tachometer was operated by R wave of electrocardiogram of exterminal derivation. The effect of the tested 15-keto-PGEs on pulse is evaluated by the value calucurated from the following formula: [formula]

mouse = experiment: Acute toxicity upon oral administration (Experiment 6); assay type: in vivo, Male Slc-ddY mouse; conditions: mouse (5 weeks old)
Text: Using Male Slc-ddY mouse (5 weeks old), acute toxicity upon oral administration (LD50) was examined.

Compound: 13,14-dihydro-15-keto-16R,S-fluoro-PGF2 α [Test Drug 5]
- Change in Blood Pressure (%) (blood pressure): +7%

- Pulse (pulse): .dwnarw. → .uparw.
- effect on pulse (in words) (pulse): ephemeral decrease in pulse
Compound: CCCCC[C@H](O)/C=C/[C@@H]1[C@@H](C/C=C\CCCC(=O)O)[C@@H](O)C[C@H]1O [PGF2 α, (Z)-7-[(1R,2R,3R,5S)-3,5-dihydroxy-2-{(E)-(3S)-3-hydroxy-1-octenyl}-cyclopentyl]-5-heptenoic acid, reference compound]
- Blood Pressure (blood pressure; rat): .dwnarw. → .uparw.
- effect on blood pressure (in words) (blood pressure; rat): ephemeral decrease in pulse as well as blood pressure

Compound: 13,14-dihydro-15-keto-20-n-butyl-PGF2 α methyl ester [Test Drug 22]
- Change in Blood Pressure (%) (blood pressure): +14%

Compound: 13,14-dihydro-15-keto-20-ethyl-PGF2 α n-butyl ester [Test Drug 19]
- Change in Blood Pressure (%) (blood pressure): +8%

Compound: 13,14-dihydro-15-keto-17S-methyl-PGF2 α ethyl ester [Test Drug 13]
- Change in Blood Pressure (%) (blood pressure): +18%

Compound: 13,14-dihydro-15-keto-16R,S-fluoro-PGF2 α methyl ester [Test Drug 6]
- Change in Blood Pressure (%) (blood pressure): +18%

Compound: 13,14-dihydro-15-keto-16,16-dimethyl-PGF2 α ethyl ester [Test Drug 4]
- Change in Blood Pressure (%) (blood pressure): +7%

Compound: CCCCCCCCC(=O)CC[C@@H]1[C@@H](C/C=C\CCCC(=O)OC)[C@@H](O)C[C@H]1O [Test Drug 21, 13,14-dihydro-15-keto-20-n-propyl-PGF2 α methyl ester]
- Change in Blood Pressure (%) (blood pressure): +16%

Compound: 13,14-dihydro-15-keto-20-ethyl-PGF1 α methyl ester [Test Drug 25]
- Change in Blood Pressure (%) (blood pressure): +32%

Compound: 13,14-dihydro-15-keto-20-ethyl-PGF2 α methyl ester [Test Drug 16]
- LD50 (oral) (mouse): > 2000 mg/kg
- Change in Blood Pressure (%) (blood pressure): +26%
- Blood Pressure (blood pressure; rat): .uparw. (increase more than 10%)

Compound: 13,14-dihydro-15-keto-PGF2 α methyl ester [Test Drug 1]
- Change in Blood Pressure (%) (blood pressure): +14%
- Blood Pressure (blood pressure; rat): .uparw. (increase more than 10%)

Compound: 13,14-dihydro-15-keto-20-ethyl-16R,S-fluoro-11R-dehydroxy-11R-methyl-PGF2 α methyl ester [Test Drug 12]
- Change in Blood Pressure (%) (blood pressure): +13%

Compound: 13,14-dihydro-15-keto-16R,S-fluoro-11R-dehydroxy-11R-methyl-PGF2 α methyl ester [Test Drug 8]
- Change in Blood Pressure (%) (blood pressure): +44%

Compound: 13,14-dihydro-15-keto-20-ethyl-11R-dehydroxy-11R-methyl-PGF2 α methyl ester [Example 15]
- Change in Blood Pressure (%) (blood pressure): +7%

Compound: 13,14-dihydro-15-keto-20-methyl-PGF2 α methyl ester [Test Drug 14]
- Change in Blood Pressure (%) (blood pressure): +10%

Compound: 13,14-dihydro-15-keto-20-ethyl-16R,S-fluoro-PGF2 α methyl ester [Test Drug 11]
- Change in Blood Pressure (%) (blood pressure): +8%

Compound: CCCCCC(=O)CC[C@@H]1[C@@H](C/C=C\CCCC(=O)OCC)[C@@H](O)C[C@H]1O [Test Drug 2, 13,14-dihydro-15-keto-PGF2 α ethyl ester]
- Change in Blood Pressure (%) (blood pressure): +17%

Compound: 13,14-dihydro-15-keto-20-ethyl-PGF2 α ethyl ester [Test Drug 17]
- Change in Blood Pressure (%) (blood pressure): +20%

Compound: 13,14-dihydro-15-keto-20-ethyl-16R,S-fluoro-PGF2 α [Test Drug 10]
- Change in Blood Pressure (%) (blood pressure): +35%

Compound: 13,14-dihydro-15-keto-20-ethyl-PGF2 α [Test Drug 15]
- Change in Blood Pressure (%) (blood pressure): +24%

Compound: 13,14-dihydro-15-keto-16-desbutyl-16-m-trifluoromethylphenoxy-PGF2 α methyl ester [Test Drug 23]
- Change in Blood Pressure (%) (blood pressure): +5%

Compound: 13,14-dihydro-15-keto-20-ethyl-PGF2 α isopropyl ester [Test Drug 18]
- LD50 (oral) (mouse): > 2000 mg/kg
- Change in Blood Pressure (%) (blood pressure): +16%
- Blood Pressure (blood pressure; rat): .uparw. (increase more than 10%)

Compound: 13,14-dihydro-15-keto-PGF1 α ethyl ester [Test Drug 24]
- Change in Blood Pressure (%) (blood pressure): +27%

Compound: CCCCCC(=O)CC[C@@H]1[C@@H](C/C=C\CCCC(=O)OC)[C@@H](O)C[C@H]1O [compound 1]
- Change in Blood Pressure (%) (blood pressure): +12%

Compound: 13,14-dihydro-15-keto-9β,11α-PGF2 methyl ester [Test Drug 3]
- Change in Blood Pressure (%) (blood pressure): +5%

Compound: 13,14-dihydro-15-keto-20-methoxy-PGF2 α methyl ester [Example 9]
- Change in Blood Pressure (%) (blood pressure): +41%
